Several values for one entry are separate records, joined by “and”; a condition that tells them apart may be missing. Equal entries are not always repeated. Toxic doses and inconclusive results are not listed. Cut-off read from the data, not from the text of the source: active = T/C of 150% or more; inactive = T/C below 125%.
Tested on: L1210 leukemia ip in BDF1 mice, survival T/C
Test: NCI In Vivo Anticancer Drug Screen. Data for tumor model L1210 Leukemia (intraperitoneal) in B6D2F1 (BDF1) mice
Details: higher = longer survival
Outline: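 Value reflects the ratio of survival in compound-treated mice to survival in vehicle-treated controls, with both groups carrying the same transplanted tumor.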

[1] = endpoint: mean survival time, dose: 100.0 mg/kg/injection, schedule: Q01DX001 (ip), vehicle: other
[2] = endpoint: mean survival time, dose: 200.0 mg/kg/injection, schedule: Q01DX001 (ip), vehicle: other
[3] = endpoint: mean survival time, dose: 400.0 mg/kg/injection, schedule: Q01DX001 (ip), vehicle: other
[4] = endpoint: mean survival time, dose: 100.0 mg/kg/injection, schedule: Q01DX001 (ip), vehicle: saline
[5] = endpoint: mean survival time, dose: 200.0 mg/kg/injection, schedule: Q01DX001 (ip), vehicle: saline
[6] = endpoint: mean survival time, dose: 400.0 mg/kg/injection, schedule: Q01DX001 (ip), vehicle: saline
[7] = endpoint: mean survival time, dose: 100.0 mg/kg/injection, schedule: Q04DX002 (ip), vehicle: Klucel (hydroxypropylcellulose) (HPC)
[8] = endpoint: mean survival time, dose: 200.0 mg/kg/injection, schedule: Q04DX002 (ip), vehicle: Klucel (hydroxypropylcellulose) (HPC)
[9] = endpoint: mean survival time, dose: 400.0 mg/kg/injection, schedule: Q04DX002 (ip), vehicle: Klucel (hydroxypropylcellulose) (HPC)
[10] = endpoint: mean survival time, dose: 100.0 mg/kg/injection, schedule: Q01DX009 (ip), vehicle: Klucel (hydroxypropylcellulose) (HPC)
[11] = endpoint: mean survival time, dose: 100.0 mg/kg/injection, schedule: Q04DX002 (ip), vehicle: saline with Tween-80
[12] = endpoint: mean survival time, dose: 200.0 mg/kg/injection, schedule: Q04DX002 (ip), vehicle: saline with Tween-80
[13] = endpoint: mean survival time, dose: 100.0 mg/kg/injection, schedule: Q01DX009 (ip), vehicle: saline with Tween-80
[14] = endpoint: mean survival time, dose: 100.0 mg/kg/injection, schedule: Q04DX003 (ip), vehicle: saline with Tween-80
[15] = endpoint: mean survival time, dose: 200.0 mg/kg/injection, schedule: Q01DX009 (ip), vehicle: saline with Tween-80
[16] = endpoint: mean survival time, dose: 400.0 mg/kg/injection, schedule: Q01DX009 (ip), vehicle: saline with Tween-80
[17] = endpoint: mean survival time, dose: 100.0 mg/kg/injection, schedule: Q01DX001 (ip), vehicle: carboxymethylcellulose (CMC)
[18] = endpoint: mean survival time, dose: 200.0 mg/kg/injection, schedule: Q01DX001 (ip), vehicle: carboxymethylcellulose (CMC)
[19] = endpoint: mean survival time, dose: 400.0 mg/kg/injection, schedule: Q01DX001 (ip), vehicle: carboxymethylcellulose (CMC)
[20] = endpoint: mean survival time, dose: 100.0 mg/kg/injection, schedule: Q04DX003 (ip), vehicle: saline
[21] = endpoint: mean survival time, dose: 200.0 mg/kg/injection, schedule: Q04DX003 (ip), vehicle: saline
[22] = endpoint: mean survival time, dose: 400.0 mg/kg/injection, schedule: Q04DX003 (ip), vehicle: saline

Measured: T/C

O=C(O)C1CC(O)CN1 (configuration not stated)
inactive: endpoint: mean survival time, dose: 12.5 mg/kg/injection, schedule: Q04DX002 (ip), vehicle: saline 110 % of control and 107 % of control | endpoint: mean survival time, dose: 25.0 mg/kg/injection, schedule: Q04DX002 (ip), vehicle: saline 106 % of control and 97 % of control | endpoint: mean survival time, dose: 50.0 mg/kg/injection, schedule: Q04DX002 (ip), vehicle: saline 100 % of control and 110 % of control | endpoint: median survival time, dose: 25.0 mg/kg/injection, schedule: Q01DX009 (ip), vehicle: saline 102 % of control | endpoint: median survival time, dose: 50.0 mg/kg/injection, schedule: Q01DX009 (ip), vehicle: saline 103 % of control | endpoint: median survival time, dose: 100.0 mg/kg/injection, schedule: Q01DX009 (ip), vehicle: saline 108 % of control | endpoint: median survival time, dose: 200.0 mg/kg/injection, schedule: Q01DX009 (ip), vehicle: saline 112 % of control | endpoint: median survival time, dose: 400.0 mg/kg/injection, schedule: Q01DX009 (ip), vehicle: saline 114 % of control

O=C(NC(Cc1ccc(O)cc1)C(=O)O)SCc1ccccc1 (configuration not stated)
inactive: [1] 100 % of control | [2] 102 % of control | [3] 102 % of control

CCN1CCCC(Nc2nc(Nc3cc(Cl)cc(Cl)c3)nc3cc(Cl)ccc23)C1 (configuration not stated)
inactive: endpoint: mean survival time, dose: 100.0 mg/kg/injection, schedule: Q04DX003 (ip), vehicle: saline sonified 95 % of control | endpoint: mean survival time, dose: 200.0 mg/kg/injection, schedule: Q04DX003 (ip), vehicle: saline sonified 97 % of control | endpoint: mean survival time, dose: 400.0 mg/kg/injection, schedule: Q04DX003 (ip), vehicle: saline sonified 106 % of control

Oc1ccccc1C=Nc1cccc2c(N=Cc3ccccc3O)cccc12
inactive: endpoint: mean survival time, dose: 50.0 mg/kg/injection, schedule: Q04DX003 (ip), vehicle: other 89 % of control | [4] 86 % of control | endpoint: mean survival time, dose: 100.0 mg/kg/injection, schedule: Q04DX003 (ip), vehicle: other 86 % of control | [5] 88 % of control | endpoint: mean survival time, dose: 200.0 mg/kg/injection, schedule: Q04DX003 (ip), vehicle: other 86 % of control | [6] 86 % of control

COc1ccc(OCCCO)cc1
inactive: [7] 108 % of control | [8] 105 % of control | [9] 97 % of control

CCc1cnc(N)nc1N
inactive: endpoint: mean survival time, dose: 25.0 mg/kg/injection, schedule: Q01DX009 (ip), vehicle: Klucel (hydroxypropylcellulose) (HPC) 107 % of control | endpoint: mean survival time, dose: 50.0 mg/kg/injection, schedule: Q01DX009 (ip), vehicle: Klucel (hydroxypropylcellulose) (HPC) 101 % of control | endpoint: mean survival time, dose: 100.0 mg/kg/injection, schedule: Q01DX001 (ip), vehicle: Klucel (hydroxypropylcellulose) (HPC) 107 % of control | [10] 104 % of control

CSc1ccc(OC(=O)Nc2cccc3ccccc23)cc1C
inactive: [7] 101 % of control | [8] 101 % of control | [9] 104 % of control

COc1cc(OC)c(-c2nc3ccc(C)cc3c(=O)o2)cc1OC
inactive: [11] 103 % of control | [12] 100 % of control | endpoint: mean survival time, dose: 400.0 mg/kg/injection, schedule: Q04DX002 (ip), vehicle: saline with Tween-80 103 % of control

S=C(c1ccccn1)N1CCOCC1
inactive: endpoint: mean survival time, dose: 100.0 mg/kg/injection, schedule: Q04DX003 (ip), vehicle: Klucel (hydroxypropylcellulose) (HPC) 90 % of control | endpoint: mean survival time, dose: 200.0 mg/kg/injection, schedule: Q04DX003 (ip), vehicle: Klucel (hydroxypropylcellulose) (HPC) 102 % of control | endpoint: mean survival time, dose: 400.0 mg/kg/injection, schedule: Q04DX003 (ip), vehicle: Klucel (hydroxypropylcellulose) (HPC) 95 % of control

O=C(c1ccccc1)c1ccc(N2CCOCC2)cc1
inactive: [1] 96 % of control | [2] 98 % of control | [3] 90 % of control

CN(C)CCCCCCN(C)C (tested in a mixture with another compound)
inactive: endpoint: mean survival time, dose: 9.38 mg/kg/injection, schedule: Q01DX001 (ip), vehicle: saline 102 % of control | endpoint: mean survival time, dose: 18.75 mg/kg/injection, schedule: Q01DX001 (ip), vehicle: saline 95 % of control | endpoint: mean survival time, dose: 37.5 mg/kg/injection, schedule: Q01DX001 (ip), vehicle: saline 93 % of control

COc1ccc(C(C)c2ccccc2)cc1C(C)c1ccccc1 (configuration not stated)
inactive: [13] 93 % of control | [14] 98 % of control | [15] 95 % of control | endpoint: mean survival time, dose: 200.0 mg/kg/injection, schedule: Q04DX003 (ip), vehicle: saline with Tween-80 89 % of control | [16] 88 % of control | endpoint: mean survival time, dose: 400.0 mg/kg/injection, schedule: Q04DX003 (ip), vehicle: saline with Tween-80 98 % of control

O=C(O)c1cccc(Cl)c1
inactive: [10] 100 % of control | endpoint: mean survival time, dose: 200.0 mg/kg/injection, schedule: Q01DX009 (ip), vehicle: Klucel (hydroxypropylcellulose) (HPC) 100 % of control | endpoint: mean survival time, dose: 400.0 mg/kg/injection, schedule: Q01DX009 (ip), vehicle: Klucel (hydroxypropylcellulose) (HPC) 86 % of control

CC(C)CCCC(C)C1CCC2C3CC4C(F)(Cl)C45CC4(CCC5(C)C3CCC12C)OCCO4 (configuration not stated)
inactive: endpoint: mean survival time, dose: 100.0 mg/kg/injection, schedule: Q04DX002 (ip), vehicle: other 87 % of control | endpoint: mean survival time, dose: 200.0 mg/kg/injection, schedule: Q04DX002 (ip), vehicle: other 114 % of control | endpoint: mean survival time, dose: 400.0 mg/kg/injection, schedule: Q04DX002 (ip), vehicle: other 93 % of control

CC(CO)(CO)N=Cc1cc([N+](=O)[O-])ccc1O
inactive: [17] 98 % of control | [18] 98 % of control | [19] 98 % of control

COc1ccc(-c2ccccc2)cc1S
inactive: endpoint: mean survival time, dose: 50.0 mg/kg/injection, schedule: Q01DX001 (ip), vehicle: carboxymethylcellulose (CMC) 95 % of control | [17] 98 % of control | [18] 93 % of control | [19] 98 % of control

CS(=O)(=O)C(=Cc1ccccc1Cl)S(C)(=O)=O
inactive: [13] 92 % of control | [15] 100 % of control | [16] 101 % of control

O=C1C2(c3ccccc3)CCC1(c1ccccc1)C(c1ccccc1)=C2c1ccccc1
inactive: endpoint: mean survival time, dose: 100.0 mg/kg/injection, schedule: Q01DX001 (ip), vehicle: saline with Tween-80 93 % of control

O=C(Nc1ccccc1Cl)Oc1ccc(C2CCCCC2)cc1
inactive: [7] 103 % of control | [8] 98 % of control | [9] 98 % of control

CN1CCN(C2CCCCc3ccccc32)CC1 (configuration not stated)
inactive: [14] 95 % of control

CCOP(=O)(NC1C2CCC(C2)C1C)OCC (configuration not stated)
inactive: [5] 98 % of control | [6] 102 % of control

COC(OC)c1[nH]c(=S)[nH]c(=O)c1Cc1cc(C)ccc1C
inactive: endpoint: mean survival time, dose: 100.0 mg/kg/injection, schedule: Q01DX009 (ip), vehicle: saline 99 % of control | endpoint: mean survival time, dose: 200.0 mg/kg/injection, schedule: Q01DX009 (ip), vehicle: saline 101 % of control | endpoint: mean survival time, dose: 400.0 mg/kg/injection, schedule: Q01DX009 (ip), vehicle: saline 103 % of control

S=P(c1ccccc1)(N1CC1)N1CC1
inactive: endpoint: mean survival time, dose: 25.0 mg/kg/injection, schedule: Q04DX002 (ip), vehicle: saline with Tween-80 110 % of control | endpoint: mean survival time, dose: 50.0 mg/kg/injection, schedule: Q01DX Z (ip), vehicle: saline 124 % of control | endpoint: mean survival time, dose: 50.0 mg/kg/injection, schedule: Q04DX002 (ip), vehicle: saline with Tween-80 103 % of control | endpoint: mean survival time, dose: 100.0 mg/kg/injection, schedule: Q01DX Z (ip), vehicle: saline 115 % of control | [11] 115 % of control and 116 % of control | [12] 92 % of control

C=CCc1cc(C)ccc1OC(=O)c1cc([N+](=O)[O-])cc([N+](=O)[O-])c1
inactive: [4] 102 % of control | [5] 98 % of control | [6] 98 % of control

CCOC(CCc1cnc[nH]c1=O)OCC
inactive: [20] 106 % of control | [21] 97 % of control | [22] 93 % of control

O=C(O)CCN1C/C(=C\c2ccccc2)C(=O)C1=O
inactive: [20] 101 % of control | [21] 101 % of control | [22] 101 % of control

Cc1nc2c(nc1C)C(=O)C=CC2=O
inactive: endpoint: mean survival time, dose: 5.0 mg/kg/injection, schedule: Q01DX001 (ip), vehicle: carboxymethylcellulose (CMC) 100 % of control | endpoint: mean survival time, dose: 10.0 mg/kg/injection, schedule: Q01DX001 (ip), vehicle: carboxymethylcellulose (CMC) 96 % of control | endpoint: mean survival time, dose: 20.0 mg/kg/injection, schedule: Q01DX001 (ip), vehicle: carboxymethylcellulose (CMC) 94 % of control

From PubChem BioAssay AID248 (DTP/NCI, 2004)
